According to US20250009769A1, “USE OF LYSOPHOSPHATIDIC ACID (LPA) IN CONTROLLING PORCINE INFECTIOUS DIARRHEA” (SICHUAN AGRICULTURAL UNIVERSITY, priority 2023, published 2025):
Marks after values point to notes of the source that are not given here.

Experiments:
[1] = test system: ETEC; assay: Intestinal tissue morphology of piglets infected with ETEC, dietary 0.3% LPA (Example 1); assay type: in vivo, DLY weaned piglets; details: for Duodenum V/C ratio / Ileum V/C ratio / Jejunum V/C ratio: villus height/crypt depth
Method: (§1) 25-day-old DLY weaned piglets were selected, with an average weight of (7.24±0.07) kg.
(§2) In the experiment, 32 piglets were divided into 4 groups with 8 replicates in each group, and the experimental period was 21 d. […] Slaughtering and sampling were conducted on the morning of day 21 of the experiment.
ETEC challenge reduced villus height and V/C in the duodenum and ileum (P<0.05), and increased crypt depth in the ileum (P<0.05). […] Furthermore, the LPA reduced the crypt depth and increased the villus height/crypt depth (V/C) ratio in the ileum of ETEC-challenged piglets (P<0.05).

[2] = parameters: species or system DLY weaned piglets; details: in vivo
Method: as §1, §2

[3] = test system: ETEC; assay: Intestinal permeability of piglets infected with ETEC, dietary 0.3% LPA (Example 1); assay type: in vivo, DLY weaned piglets
Method: as §1, §2

[4] = test system: ETEC; assay: Diarrhea rate and diarrhea index of weaned piglets after ETEC challenge, dietary 0.3% LPA (Example 1); assay type: in vivo, DLY weaned piglets
Method: as §1, §2

[5] = test system: ETEC; assay: Diarrhea rate caused by Escherichia coli in weaned piglets, dietary 0.2% LPA (Example 2); assay type: in vivo, DLY weaned piglets; details: ETEC + LPA group: 0.2% LPA in diet
Method: 21-day-old DLY weaned piglets were selected, with an average weight of (6.23±0.82) kg.
In the experiment, 24 piglets were divided into 3 groups, each group had 8 replicates, and the experimental period was 21 d. […] Slaughtering and sampling were conducted on the morning of day 21 of the experiment.

[6] = LPA + ETEC group: 0.3% LPA, ETEC challenge
[7] = LPA + ETEC group: diet with 0.3% LPA, ETEC challenge on day 18
[8] = LPA group: diet with 0.3% LPA, saline instead of ETEC

## CCCCCCCC/C=C\CCCCCCCC(=O)OC[C@@H](O)COP(=O)([O-])[O-].[Na+].[Na+] [LPA, 1-oleoyl-sn-glycerol 3-phosphate sodium salt]
[1]; [6]
  Duodenum crypt depth: 273.45 ± 9.78 ^ μm
  Duodenum villus height: 452.55 ± 11.68^b μm
  Ileum crypt depth: 170.08 ± 4.12^b μm
  Ileum villus height: 378.37 ± 13.76^a μm
  Jejunum crypt depth: 177.98 ± 6.30 ^ μm
  Jejunum villus height: 360.56 ± 10.87 ^ μm
  Duodenum V/C ratio: 1.65 ± 1.19^b
  Ileum V/C ratio: 2.22 ± 3.34^b
  Jejunum V/C ratio: 2.02 ± 1.73^
[1]; LPA group: 0.3% LPA, no ETEC
  Duodenum crypt depth: 270.03 ± 8.13 μm
  Duodenum villus height: 493.34 ± 12.43^a μm
  Ileum crypt depth: 150.45 ± 4.89^b μm
  Ileum villus height: 401.46 ± 13.45^a μm
  Jejunum crypt depth: 160.98 ± 3.23 μm
  Jejunum villus height: 377.28 ± 9.89 μm
  Duodenum V/C ratio: 1.83 ± 1.53^a
  Ileum V/C ratio: 2.67 ± 2.75^a
  Jejunum V/C ratio: 2.34 ± 3.06
[2]
  Impact on piglet growth performance: no significant negative impact on piglet growth performance
[3]; [6]
  D-lactic acid: 1.53 ± 0.93^b mg/L
  DAO: 335.62 ± 14.23^b pg/mL
  Fluid accumulation rate: 1.42 ± 0.68^b
  LPS: 49.13 ± 2.56^b ng/L
[3]; LPA group: 0.3% LPA, no ETEC
  D-lactic acid: 1.69 ± 0.22^b mg/L
  DAO: 330.43 ± 12.78^b pg/mL
  Fluid accumulation rate: 1.32 ± 1.21^b
  LPS: 48.23 ± 5.23^b ng/L
[4]; [7]
  Diarrhea index: 0.75 ± 0.56^b
  Diarrhea rate: 37.50 ± 27.99^b %
[4]; [8]
  Diarrhea index: 0.00 ± 0.00^c
  Diarrhea rate: 0.00 ± 0.00^c %
[5]; after challenge
  Diarrhea index: 1.98^b
  Diarrhea rate: 33.56 ± 0.28^b %
[5]; before challenge
  Diarrhea index: 1.68
  Diarrhea rate: 11.86 ± 0.15^b %
